Measurements from ChEMBL document CHEMBL1201862, “PubChem BioAssay data set” (2004).
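1) Cells in 96-well plates. 2) Compound, 48 h, 5 concentrations. 3) Linear interpolation between surrounding doses. 4) Unreached endpoint = highest concentration. At the GI50, growth is halved.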 Activity calls are given as the source filed them. No stated cut-off is given here; in the data, active = GI50 up to about 1.1 µM and inactive = higher.

How the values were obtained:
Experiment in all cases: NCI tumour cell line growth inhibition, 48 h
IGROV-1 = test system: IGROV-1
CCRF-CEM = test system: CCRF-CEM
K562 = test system: K562
T47D = test system: T47D
MDA-MB-231 = test system: MDA-MB-231
PC-3 = test system: PC-3
OVCAR-8 = test system: OVCAR-8
MDA-MB-435 = test system: MDA-MB-435
ACHN = test system: ACHN
SK-OV-3 = test system: SK-OV-3
A549 = test system: A549
HCT-15 = test system: HCT-15
786-0 = test system: 786-0
MDA-N = test system: MDA-N
SNB-19 = test system: SNB-19
Malme-3M = test system: Malme-3M
UACC-257 = test system: UACC-257
NCI-H23 = test system: NCI-H23
RPMI-8226 = test system: RPMI-8226
SNB-75 = test system: SNB-75
TK-10 = test system: TK-10
SF-268 = test system: SF-268
DU-145 = test system: DU-145
SN12C = test system: SN12C
HT-29 = test system: HT-29
LOX IMVI = test system: LOX IMVI
M14 = test system: M14
HCT-116 = test system: HCT-116
BT-549 = test system: BT-549
HOP-62 = test system: HOP-62
SF-539 = test system: SF-539
SF-295 = test system: SF-295
OVCAR-5 = test system: OVCAR-5
MCF7 = test system: MCF7
SW-620 = test system: SW-620
UACC-62 = test system: UACC-62
NCI-H226 = test system: NCI-H226
Hs-578T = test system: Hs-578T
UO-31 = test system: UO-31
NCI-H460 = test system: NCI-H460
A498 = test system: A498
SK-MEL-5 = test system: SK-MEL-5
SK-MEL-2 = test system: SK-MEL-2
EKVX = test system: EKVX
KM12 = test system: KM12
SK-MEL-28 = test system: SK-MEL-28
HCC 2998 = test system: HCC 2998
OVCAR-3 = test system: OVCAR-3
SR = test system: SR
U-251 = test system: U-251
MOLT-4 = test system: MOLT-4
RXF 393 = test system: RXF 393
OVCAR-4 = test system: OVCAR-4
NCI/ADR-RES = test system: NCI/ADR-RES
CAKI-1 = test system: CAKI-1
HL-60 = test system: HL-60
COLO 205 = test system: COLO 205
HOP-92 = test system: HOP-92
NCI-H522 = test system: NCI-H522

Measured: GI50

O=C1C(Cl)=C(NCCCN2CCOCC2)C(=O)c2c(O)ccc(O)c21
inactive: IGROV-1 1.9 µM | K562 2.62 µM | T47D 4.89 µM | MDA-MB-231 3.01 µM | PC-3 2.96 µM | OVCAR-8 3.99 µM | MDA-MB-435 1.85 µM | ACHN 9.18 µM | SK-OV-3 7.89 µM | A549 3.9 µM | 786-0 2.29 µM | MDA-N 1.72 µM | SNB-19 1.66 µM | Malme-3M 1.91 µM | UACC-257 2.35 µM | NCI-H23 1.75 µM | SNB-75 2.38 µM | TK-10 6.28 µM | SF-268 2.84 µM | DU-145 1.6 µM | SN12C 2.01 µM | HT-29 2.75 µM | LOX IMVI 1.8 µM | M14 1.96 µM | HCT-116 1.59 µM | BT-549 1.64 µM | HOP-62 1.96 µM | SF-539 1.68 µM | SF-295 2.53 µM | OVCAR-5 1.71 µM | MCF7 1.55 µM | SW-620 1.95 µM | UACC-62 1.77 µM | NCI-H226 3.54 µM | Hs-578T 1.27 µM | UO-31 1.64 µM | NCI-H460 3.13 µM | A498 10 µM | KM12 1.85 µM | SK-MEL-28 1.77 µM | HCC 2998 2.2 µM | OVCAR-3 1.61 µM | SR 2.58 µM | U-251 2.19 µM | RXF 393 1.75 µM
1.26 µM: HCT-15
active: CCRF-CEM 1 µM | RPMI-8226 0.0598 µM | SK-MEL-5 1.1 µM | SK-MEL-2 0.228 µM | EKVX 1 µM | MOLT-4 1 µM

Cc1cc2c(cc1Cl)SC(c1ccccc1O)NS2(=O)=O (centres undefined)
19.4 µM: HCT-15
inactive: IGROV-1 42.4 µM | K562 27.7 µM | T47D 6.95 µM | MDA-MB-231 32.4 µM | PC-3 68.5 µM | OVCAR-8 > 100 µM | OVCAR-4 63.7 µM | MDA-MB-435 45.7 µM | ACHN 52.8 µM | SK-OV-3 > 100 µM | A549 > 100 µM | 786-0 34.7 µM | SNB-19 81.3 µM | Malme-3M 24.4 µM | UACC-257 53 µM | NCI-H23 70.6 µM | NCI/ADR-RES 30.7 µM | SNB-75 > 100 µM | TK-10 > 100 µM | SF-268 91.4 µM | DU-145 33.9 µM | SN12C 41 µM | HT-29 45.4 µM | LOX IMVI 43.8 µM | M14 57 µM | HCT-116 27.5 µM | BT-549 47.2 µM | HOP-62 > 100 µM | CAKI-1 50.6 µM | SF-539 48.8 µM | SF-295 > 100 µM | OVCAR-5 40.1 µM | MCF7 36.9 µM | SW-620 19.2 µM | UACC-62 29.6 µM | NCI-H226 86.5 µM | Hs-578T 38.5 µM | UO-31 63.2 µM | HL-60 59.7 µM | NCI-H460 92 µM | COLO 205 20.8 µM | A498 > 100 µM | SK-MEL-5 42.7 µM | SK-MEL-2 87.3 µM | EKVX 56.9 µM | KM12 94 µM | HOP-92 54.1 µM | SK-MEL-28 49.4 µM | HCC 2998 31 µM | OVCAR-3 21.7 µM | SR 16.4 µM | U-251 72.9 µM | MOLT-4 12.5 µM | NCI-H522 48.9 µM | RXF 393 53.5 µM
active: CCRF-CEM < 0.01 µM
